Assay results from patent US4720387A (priority 1983, dated 1988).

What was measured:
[1] = in vivo
Description: [referred to Exp. 6-II), Table 12].
The frequency of the adverse reaction was compared between the two groups.

[2] = blood-level and excretion of native pinacidil; format: in vivo, inpatients suffering from hypertension
[3] = relationship between antihypertensive effect and blood-level of pinacidil; parameters: species or system inpatients suffering from hypertension; conditions: in vivo
Description: The term ΔMBP means the difference between the values of Mean Blood Pressure before and after the administration, and FIGS. 1 and 2 show the average of blood-levels or ΔMBP on the five inpatients.

[4] = adverse reaction at various dosages in inpatients; format: in vivo, inpatients suffering from hypertension; conditions: higher dosage affording sufficient therapeutic time
[5] = in vivo; cited from earlier work

CC(N/C(=N\C#N)Nc1ccncc1)C(C)(C)C (stereo not drawn) [pinacidil, N"-cyano-N-4-pyridyl-N'-1,2,2-trimethylpropylguanidine]
blood-level at which side-effects (headache) occasionally occur [1]: over 100 ng/ml
maximum safety level (blood-level) [1]: 100 ng/mL
time the effective blood-level is kept ([2]; highest dosage of unprepared pinacidil to avoid the adverse reaction): about 6 hours
half-life ([2]; human, blood, administered after a meal, read-out: biological half-life period): 1 to 2 h
Tmax ([2]; human, blood, administered after a meal, read-out: time to maximum concentration): 1 to 3 h
blood-level at which the antihypertensive effect was minimum (minimum effective blood-level) [3]: around 20 ng/ml
blood-level at which the antihypertensive effect was satisfactory [3]: over 30 ng/ml
adverse reaction at higher dosage [4]: usually induced the adverse reaction (i.e. headache)
dose proportionality of blood-level [5]: increases in proportion to its dose level
